According to patent US9233979B2, “Compounds that are ERK inhibitors” (Merck Sharp & Dohme Corp., priority 2012, dated 2016):

Target: phosphorylated active hERK2 enzyme (Homo sapiens (Human), UniProt P28482)
Assay: Active Human ERK2 (hERK2) Activity Assay (IMAP-FP)
Type: biochemical
Settings: Table 6, 0.5 nM hERK2, 30 μM ATP, 10 point titration, read-out: AERK2 IC50
In short: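 IMAP detection beads in buffer with 24 mM NaCl stopped the reaction, and fluorescence polarization was read after 60 min binding.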

phosphorylated active hERK2 enzyme, sequence (P28482 whole entry): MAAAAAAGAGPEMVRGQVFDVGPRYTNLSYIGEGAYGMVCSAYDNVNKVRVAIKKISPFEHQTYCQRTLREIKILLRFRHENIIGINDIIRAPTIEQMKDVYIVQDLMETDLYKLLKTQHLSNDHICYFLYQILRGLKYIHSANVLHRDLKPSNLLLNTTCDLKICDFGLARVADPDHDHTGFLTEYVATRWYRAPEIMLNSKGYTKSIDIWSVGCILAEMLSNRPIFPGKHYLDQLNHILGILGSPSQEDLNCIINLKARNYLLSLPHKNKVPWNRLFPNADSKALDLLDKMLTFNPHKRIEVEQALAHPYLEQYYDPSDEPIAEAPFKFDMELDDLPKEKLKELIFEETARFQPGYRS

| Compound | IC50 |
| --- | --- |
| Nc1n[nH]c2cc(NC(=O)NCc3ccc(F)c(Cl)c3)ncc12 [Example 264, 1-(3-amino-1H-pyrazolo[4,3-c]-pyridin-6-yl)-3-(3-chloro-4-fluorobenzyl)urea] | 940 nM |
| Nc1n[nH]c2cc(NC(=O)NCc3cccc(F)c3)ncc12 [Example 265, 1-(3-amino-1H-pyrazolo[4,3-c]-pyridin-6-yl)-3-(3-fluorobenzyl)urea] | 24.5 nM |
| Cc1cccc(Cl)c1CNC(=O)Nc1cc2[nH]nc(N)c2cn1 [Example 266, 1-(3-amino-1H-pyrazolo[4,3-c]pyridin-6-yl)-3-(2-chloro-6-methylbenzyl)urea] | 13.8 nM |
| Nc1n[nH]c2cc(NC(=O)NCc3ccccc3OC(F)F)ncc12 [Example 267, 1-(3-amino-1H-pyrazolo[4,3-c]pyridin-6-yl)-3-[2-(difluoro-methoxy)benzyl]-urea] | 5.3 nM |
| COc1ccccc1CNC(=O)Nc1cc2[nH]nc(N)c2cn1 [Example 268, 1-(3-amino-1H-pyrazolo[4,3-c]pyridin-6-yl)-3-(2-methoxy-benzyl)urea] | 10.7 nM |
| COc1cccc(F)c1CNC(=O)Nc1cc2[nH]nc(N)c2cn1 [Example 269, 1-(3-amino-1H-pyrazolo[4,3-c]pyridin-6-yl)-3-(2-fluoro-6-methoxy-benzyl)urea] | 3.3 nM |
| C[C@@H](NC(=O)Nc1cc2[nH]nc(N)c2cn1)c1cccc(F)c1 [Example 270, 1-(3-amino-1H-pyrazolo[4,3-c]pyridin-6-yl)-3-[(1R)-1-(3-fluorophenyl)ethyl]urea] | 3.2 nM |
| C[C@@H](NC(=O)Nc1cc2[nH]nc(N)c2cn1)c1ccc(F)c(Cl)c1 [Example 271, 1-(3-amino-1H-pyrazolo[4,3-c]pyridin-6-yl)-3-[(1R)-1-(3-chloro-4-fluorophenyl)-ethyl]urea] | 17.3 nM |
| C[C@@H](NC(=O)Nc1cc2[nH]nc(N)c2cn1)c1cccc(Cl)c1 [Example 272, 1-(3-amino-1H-pyrazolo[4,3-c]pyridin-6-yl)-3-[(1R)-1-(3-chloro-phenyl)ethyl]urea] | 5.6 nM |
| CN(C)c1ncccc1CNC(=O)Nc1cc2[nH]nc(N)c2cn1 [Example 274, 1-(3-amino-1H-pyrazolo[4,3-c]-pyridin-6-yl)-3-{[2-(dimethylamino)-pyridin-3-yl]-methyl}urea] | 32.4 nM |
| CC(NC(=O)Nc1cc2[nH]nc(N)c2cn1)c1ccc(F)c(F)c1 (stereo not drawn) [Example 275, 1-(3-amino-1H-pyrazolo[4,3-c]-pyridin-6-yl)-3-[1-(3,4-difluorophenyl)-ethyl]urea] | 4.6 nM |
| CN1C[C@@H](NC(=O)Nc2cc3[nH]nc(N)c3cn2)[C@H](c2ccccc2)C1 [Example 277, 1-(3-amino-1H-pyrazolo[4,3-c]pyridin-6-yl)-3-[(3S,4R)-1-methyl-4-phenylpyrrolidin-3-yl]urea] | 3.2 nM |
| CCNc1n[nH]c2cc(NC(=O)NCc3ncccc3Cl)ncc12 [Example 278, 1-[(3-chloro-pyridin-2-yl)-methyl]-3-[3-(ethylamino)-1H-pyrazolo[4,3-c]-pyridin-6-yl]urea] | 21.8 nM |
| CCNc1n[nH]c2cc(NC(=O)NCc3ncccc3F)ncc12 [Example 279, 1-[3-(ethylamino)-1H-pyrazolo[4,3-c]pyridin-6-yl]-3-[(3-fluoropyridin-2-yl)methyl]urea] | 63.4 nM |
| CCNc1n[nH]c2cc(NC(=O)NC(C)c3ccc(C)nc3)ncc12 (stereo not drawn) [Example 280, 1-[3-(ethylamino)-1H-pyrazolo[4,3-c]pyridin-6-yl]-3-[1-(6-methyl-pyridin-3-yl)-ethyl]urea] | 143 nM |
| CCNc1n[nH]c2cc(NC(=O)NC(C)c3cc(C)ccn3)ncc12 (stereo not drawn) [Example 281, 1-[3-(ethylamino)-1H-pyrazolo[4,3-c]pyridin-6-yl]-3-[1-(4-methyl-pyridin-2-yl)-ethyl]urea] | 98.3 nM |
| CCNc1n[nH]c2cc(NC(=O)NC(C)c3ccc(F)nc3)ncc12 (stereo not drawn) [Example 282, 1-[3-(ethylamino)-1H-pyrazolo[4,3-c]pyridin-6-yl]-3-[1-(6-fluoropyridin-3-yl)ethyl]urea] | 34.2 nM |
| CCNc1n[nH]c2cc(NC(=O)NC(C)c3cccnc3)ncc12 (stereo not drawn) [Example 283, 1-[3-(ethylamino)-1H-pyrazolo[4,3-c]pyridin-6-yl]-3-(1-pyridin-3-ylethyl)urea] | 44.4 nM |
| CCNc1n[nH]c2cc(NC(=O)NC(C)c3ccc(F)cn3)ncc12 (stereo not drawn) [Example 284] | 33 nM |
| COC(=O)Nc1n[nH]c2cc(NC(=O)N[C@H](C)c3ccc(Cl)cc3)ncc12 [Example 286, methyl [6-({[(1R)-1-(4-chlorophenyl)-ethyl]carbamoyl}-amino)-1H-pyrazolo[4,3-c]pyridin-3-yl]carbamate] | 5.2 nM |
| COC(=O)Nc1n[nH]c2cc(NC(=O)N[C@H](C)C3CCCCC3)ncc12 [Example 292, methyl [6-({[(1R)-1-cyclohexylethyl]-carbamoyl}amino)-1H-pyrazolo[4,3-c]pyridin-3-yl]-carbamate] | 19.7 nM |
| COC(=O)Nc1n[nH]c2cc(NC(=O)NC3CNc4ccccc4C3)ncc12 (stereo not drawn) [Example 293, methyl {6-[(1,2,3,4-tetrahydroquinolin-3-ylcarbamoyl)-amino]-1H-pyrazolo[4,3-c]-pyridin-3-yl}-carbamate] | 5.8 nM |
| COC(=O)Nc1n[nH]c2cc(NC(=O)NC3COc4ccccc4C3)ncc12 (stereo not drawn) [Example 294, methyl {6-[(3,4-dihydro-2H-chromen-3-ylcarbamoyl)amino]-1H-pyrazolo[4,3-c]pyridin-3-yl}-carbamate] | 26.4 nM |
| COC(=O)Nc1n[nH]c2cc(NC(=O)N[C@@H]3CCOc4ccccc43)ncc12 [Example 295, methyl (6-{[(4R)-3,4-dihydro-2H-chromen-4-ylcarbamoyl]-amino}-1H-pyrazolo[4,3-c]-pyridin-3-yl)-carbamate] | 55 nM |
| COC(=O)Nc1n[nH]c2cc(NC(=O)N[C@H](C)c3ccc(F)c(Cl)c3)ncc12 [Example 300, methyl [6-({[(1R)-1-(3-chloro-4-fluorophenyl)ethyl]carbamoyl}amino)-1H-pyrazolo[4,3-c]pyridin-3-yl]-carbamate] | 2.9 nM |
| COC(=O)Nc1n[nH]c2cc(NC(=O)NC(C)c3ccc(F)c(F)c3)ncc12 (stereo not drawn) [Example 303, methyl [6-({[1-(3,4-difluoro-phenyl)ethyl]-carbamoyl}amino)-1H-pyrazolo[4,3-c]pyridin-3-yl]-carbamate] | 3.1 nM |

Now those with a lower IC50, led by results:

| IC50 | Compound |
| --- | --- |
| 2.6 nM | CC[C@@H](NC(=O)Nc1cc2[nH]nc(N)c2cn1)c1ccc(Cl)cc1 [Example 273, 1-(3-amino-1H-pyrazolo[4,3-c]pyridin-6-yl)-3-[(1R)-1-(4-chloro-phenyl)propyl]urea] |
| 2.3 nM | Cc1cc([C@@H](C)NC(=O)Nc2cc3[nH]nc(N)c3cn2)ccc1Cl [Example 276, 1-(3-amino-1H-pyrazolo[4,3-c]pyridin-6-yl)-3-[(1R)-1-(4-chloro-3-methylphenyl)-ethyl]urea] |
| 1 nM | COC(=O)Nc1n[nH]c2cc(NC(=O)N[C@H](C)c3cccc(Cl)c3)ncc12 [Example 287, methyl [6-({[(1R)-1-(3-chlorophenyl)-ethyl]carbamoyl}-amino)-1H-pyrazolo[4,3-c]-pyridin-3-yl}-carbamate] |
| 0.6 nM | COC(=O)Nc1n[nH]c2cc(NC(=O)N[C@H](COC(F)F)c3ccccc3)ncc12 [Example 288, methyl [6-({[(1S)-2-(difluoro-methoxy)-1-phenylethyl]-carbamoyl}amino)-1H-pyrazolo[4,3-c]pyridin-3-yl}-carbamate] |
| 0.9 nM | COC(=O)Nc1n[nH]c2cc(NC(=O)N[C@@H](c3ccccc3)C3(O)CCCC3)ncc12 [Example 289, methyl [6-({[(S)-(1-hydroxycyclo-pentyl)(phenyl)-methyl]carbamoyl}amino)-1H-pyrazolo[4,3-c]-pyridin-3-yl]-carbamate] |
| 0.6 nM | COC(=O)Nc1n[nH]c2cc(NC(=O)N[C@@H](c3ccccc3)[C@H]3CCCO3)ncc12 [Example 290, methyl {6-[({(S)-phenyl[(2R)-tetra-hydrofuran-2-yl]-methyl}carbamoyl)amino]-1H-pyrazolo[4,3-c]-pyridin-3-yl}-carbamate] |
| 1 nM | COC(=O)Nc1n[nH]c2cc(NC(=O)N[C@@H]3CN(C)C[C@H]3c3ccccc3)ncc12 [Example 291, methyl[6-({[(3S,4R)-1-methyl-4-phenyl-pyrrolidin-3-yl]carbamoyl}-amino)-1H-pyrazolo[4,3-c]pyridin-3-yl]-carbamate] |
| 2.5 nM | COC(=O)Nc1n[nH]c2cc(NC(=O)NCc3ccccc3OC(F)F)ncc12 [Example 296, methyl [6-({[2-(difluoromethoxy)-benzyl]carbamoyl}-amino)-1H-pyrazolo[4,3-c]-pyridin-3-yl}-carbamate] |
| 2 nM | COC(=O)Nc1n[nH]c2cc(NC(=O)NCc3ccccc3OC)ncc12 [Example 297, methyl (6-{[(2-methoxybenzyl)-carbamoyl]amino}-1H-pyrazolo[4,3-c]pyridin-3-yl)-carbamate] |
| 1.2 nM | COC(=O)Nc1n[nH]c2cc(NC(=O)NCc3c(F)cccc3OC)ncc12 [Example 298, methyl (6-{[(2-fluoro-6-methoxy-benzyl)carbamoyl]-amino}-1H-pyrazolo[4,3-c]-pyridin-3-yl)-carbamate] |
| 1.6 nM | COC(=O)Nc1n[nH]c2cc(NC(=O)N[C@H](C)c3cccc(F)c3)ncc12 [Example 299, methyl [6-({[(1R)-1-(3-fluorophenyl)-ethyl]carbamoyl}-amino)-1H-pyrazolo[4,3-c]-pyridin-3-yl}-carbamate] |
| 1.4 nM | CC[C@@H](NC(=O)Nc1cc2[nH]nc(NC(=O)OC)c2cn1)c1ccc(Cl)cc1 [Example 301, methyl [6-({[(1R)-1-(4-chlorophenyl)-propyl]carbamoyl}amino)-1H-pyrazolo[4,3-c]-pyridin-3-yl]-carbamate] |
| 0.7 nM | COC(=O)Nc1n[nH]c2cc(NC(=O)N[C@H](C)c3ccc(Cl)c(Cl)c3)ncc12 [Example 302, methyl [6-({[(1R)-1-(3,4-dichloro-phenyl)ethyl]-carbamoyl}amino)-1H-pyrazolo[4,3-c]pyridin-3-yl]-carbamate] |
